Among the data in the OligoGym collection are calcium oscillation score values, retold here.

Bases are written 5' to 3'; sugars and linkages follow in the same order, as letters with counts (s phosphorothioate, o phosphodiester; PS: all linkages phosphorothioate). The collection does not say whether C is 5-methylated. l = locked nucleic acid (LNA); d = 2'-deoxy (DNA)

The target in the series is Tau. Put plainly: rat primary cortical neurons, FLIPR, 25 uM ASO.
“TACCTTTTTATTTCCTC (sugars l4 d11 l2, PS)”: the calcium oscillation score is 41.6 % of control. As to TACTAGCCCACCCATC (sugars l3 d10 l3, PS), the calcium oscillation score is ≥ 200 % of control. “TACTAGCCCACCCATCAATT (sugars l3 d14 l3, PS)”: the calcium oscillation score was 54.4 % of control.

For the sequence TACTATCCACTTGTTA (sugars l3 d11 l2, PS), the calcium oscillation score is 61.9 % of control.

With “TACTTTATTCCCTTAACAAT (sugars l2 d14 l4, PS)”, the calcium oscillation score is 91.3 % of control. As for “TAGACCACATTTCCATC (sugars l3 d11 l3, PS)”, the calcium oscillation score was 79.1 % of control.

With “TAGACTATTTGCACACTGCC (sugars l3 d14 l3, PS)”, the calcium oscillation score was 51.9 % of control. As for “TAGACTCCTTCTTTAGGCTT (sugars l3 d14 l3, PS)”, the calcium oscillation score is 45.2 % of control. In the case of TAGCAAACAGGATACA (sugars l3 d10 l3, PS), the calcium oscillation score was 49.8 % of control.

Regarding TAGCAGAGGAACGTGT (sugars l3 d10 l3, PS), the calcium oscillation score is 40.7 % of control.

For “TAGCCCACCCATCAATTTGG (sugars l3 d14 l3, PS)”, the calcium oscillation score is 7.77 % of control. Turning to TAGCCCTAAAGTCC (sugars l3 d8 l3, PS), the calcium oscillation score was 87.6 % of control. Take “TAGCCCTAAAGTCCCAGGTC (sugars l3 d14 l3, PS)”: the calcium oscillation score is 54 % of control. Consider TAGGAGAGGAAGGTGG (sugars l3 d10 l3, PS), for which the calcium oscillation score is 3.7 % of control. As to TAGTAAACACCATCTC (sugars l4 d9 l3, PS), the calcium oscillation score was 77.2 % of control.

As for “TAGTAAACACCATCTCT (sugars l3 d10 l4, PS)”, the calcium oscillation score was 71.4 % of control. TAGTCACTCTGGTG (sugars l3 d8 l3, PS): the calcium oscillation score was 81.9 % of control. Turning to TAGTCACTCTGGTGA (sugars l3 d9 l3, PS), the calcium oscillation score is 78.1 % of control. For “TAGTTATACAGTTGGCCCTA (sugars l3 d14 l3, PS)” the value was 19.1 % of control; for “TATACAGTTGGCCCTACCAT (sugars l3 d14 l3, PS)”, 16.7 % of control; for TATCATATCCTAAGCA (sugars l3 d9 l4, PS), 76 % of control. For “TATCATTTTCTTTTTCAAAA (sugars l4 d12 l4, PS)” the value was 37.3 % of control; for “TATCCAGCCATATTTCAACT (sugars l3 d14 l3, PS)”, 47.6 % of control; for “TATCCTTTGAGCCACACTTG (sugars l3 d14 l3, PS)”, 11.7 % of control.

Take TATCTGCAAACTCAAC (sugars l4 d8 l4, PS): the calcium oscillation score was 98.9 % of control. For the sequence “TATCTTATTGCTTTCCA (sugars l2 d12 l3, PS)”, the calcium oscillation score was 63 % of control.

Consider “TATGTTTTTTAACTCCC (sugars l4 d11 l2, PS)”, for which the calcium oscillation score was 94.3 % of control. For TATTAATTATCTGCAC (sugars l3 d10 l3, PS) the value was 27.1 % of control; for “TATTAATTATCTGCACC (sugars l3 d10 l4, PS)”, 50.9 % of control. Regarding “TATTAATTCATAAATGACTA (sugars l3 d14 l3, PS)”, the calcium oscillation score is 40.3 % of control.

Turning to “TATTATCCTTTGAGCCACAC (sugars l3 d14 l3, PS)”, the calcium oscillation score is 77.4 % of control. As for “TATTGAACTCACCCACT (sugars l2 d11 l4, PS)”, the calcium oscillation score is 65.7 % of control.

Take “TATTGAACTCACCCACTC (sugars l2 d13 l3, PS)”: the calcium oscillation score is 69 % of control. For the sequence “TATTGCTTTCCAATTCCC (sugars l4 d12 l2, PS)”, the calcium oscillation score was 93.2 % of control. As to TATTGTCCAGGGACCC (sugars l3 d10 l3, PS), the calcium oscillation score was 29.9 % of control. With “TATTGTCCAGGGACCCAATC (sugars l3 d14 l3, PS)”, the calcium oscillation score is 33.2 % of control. For TATTTACACTGTCCTTT (sugars l4 d9 l4, PS), the calcium oscillation score is 52.1 % of control.

As to TATTTATAGGTGCATA (sugars l3 d9 l4, PS), the calcium oscillation score was 0 % of control. In the case of “TATTTATTCTTTTTATTATT (sugars l4 d12 l4, PS)”, the calcium oscillation score was 58.6 % of control.

Regarding “TATTTCAACTCTTAGCA (sugars l4 d10 l3, PS)”, the calcium oscillation score was 59 % of control. For the sequence “TATTTCCAAATTCACTTTTA (sugars l1 d17 l2, PS)”, the calcium oscillation score is ≥ 200 % of control. In the case of “TATTTCCAAATTCACTTTTA (sugars l2 d16 l2, PS)”, the calcium oscillation score was ≥ 200 % of control. On to “TATTTCCAAATTCACTTTTA (sugars l3 d14 l3, PS)”, for which the calcium oscillation score was ≥ 200 % of control. “TATTTCCAAATTCACTTTTA (sugars l4 d10 l1 d2 l3, PS)”: the calcium oscillation score was 127 % of control. For the sequence “TATTTCCAAATTCACTTTTA (sugars l4 d11 l5, PS)”, the calcium oscillation score was 172 % of control. Next, “TATTTCCAAATTCACTTTTA (sugars l5 d10 l5, PS)”: ≥ 200 % of control; “TATTTCCAAATTCACTTTTA (sugars l5 d11 l4, PS)”: 121 % of control. With “TATTTCCAAATTCACTTTTA (sugars ldlllddddddddddlldll, PS)”, the calcium oscillation score is 145 % of control.

Consider “TATTTCCAAATTCACTTTTA (sugars llddldldddddddddllll, PS)”, for which the calcium oscillation score is 152 % of control.

“TATTTCCAAATTCACTTTTA (sugars llddlldddddddddldlll, PS)”: the calcium oscillation score is 120 % of control. Take “TATTTCCAAATTCACTTTTA (sugars llddlldddddddddlldll, PS)”: the calcium oscillation score is 123 % of control. As to “TATTTCCAAATTCACTTTTA (sugars lldlddldddddddddllll, PS)”, the calcium oscillation score was 114 % of control. As to “TATTTCCAAATTCACTTTTA (sugars lldldlddddddddddllll, PS)”, the calcium oscillation score was 127 % of control. Next, “TATTTCCAAATTCACTTTTA (sugars lldldldddddddddldlll, PS)”: 129 % of control; “TATTTCCAAATTCACTTTTA (sugars lldldldddddddddlldll, PS)”: 141 % of control; “TATTTCCAAATTCACTTTTA (sugars lldllddddddddddlldll, PS)”: 119 % of control. Take “TATTTCCAAATTCACTTTTA (sugars lldlldddddddddlddlll, PS)”: the calcium oscillation score is 76.7 % of control. In the case of “TATTTCCAAATTCACTTTTA (sugars lldlldddddddddldldll, PS)”, the calcium oscillation score was 110 % of control. As to “TATTTCCAAATTCACTTTTA (sugars lldlldddddddddllddll, PS)”, the calcium oscillation score is 114 % of control. For “TATTTCCAAATTCACTTTTA (sugars lllddldddddddddldlll, PS)” the value was 147 % of control. “TATTTCCAAATTCACTTTTA (sugars lllddldddddddddlldll, PS)”: the calcium oscillation score is 127 % of control. “TATTTCCAAATTCACTTTTA (sugars llldlddddddddddldlll, PS)”: the calcium oscillation score was 129 % of control. For “TATTTCCAAATTCACTTTTA (sugars llldldddddddddlddlll, PS)” the value was 125 % of control; for “TATTTCCAAATTCACTTTTA (sugars llldldddddddddldldll, PS)”, 108 % of control. Take “TATTTCCAAATTCACTTTTA (sugars llldldddddddddllddll, PS)”: the calcium oscillation score is 135 % of control.
